According to US10112950B2, “Substituted imidazo[1,2-a]pyrazines as LSD1 inhibitors” (Incyte Corporation, priority 2014, dated 2018):
pIC50: −log10 of the molar value.

Target: LSD-1 enzyme (Homo sapiens (Human), UniProt O60341)
Assay: LANCE LSD1/KDM1A demethylase assay (LSD1 histone demethylase biochemical assay)
Conditions: 1 nM LSD-1 enzyme, 1 hour preincubation at 25° C., 0.4 μM Biotin-labeled Histone H3 peptide substrate
Method: LSD1 Histone Demethylase Biochemical Assay
LANCE LSD1/KDM1A demethylase assay-10 μL of 1 nM LSD-1 enzyme (ENZO BML-SE544-0050) in the assay buffer (50 mM Tris, pH 7.5, 0.01% Tween-20, 25 mM NaCl, 5 mM DTT) were preincubated for 1 hour at 25° C. with 0.8 μL compound/DMSO dotted in black 384 well polystyrene plates. […] Reactions were stopped by addition of 10 μL 1× LANCE Detection Buffer (PerkinElmer CR97-100) supplemented with 1.5 nM Eu-anti-unmodified H3K4 Antibody (PerkinElmer TRF0404), and 225 nM LANCE Ultra Streptavidin (PerkinElmer TRF102) along with 0.9 mM Tranylcypromine-HCl (Millipore 616431). After stopping the reactions plates were incubated for 30 minutes and read on a PHERAstar FS plate reader (BMG Labtech).

| SMILES | pIC50 |
| --- | --- |
| CN(C)C1CCN(c2nc(-c3ccc(C#N)cc3)c(-c3ccc4c(c3)CC(O)C4)n3ccnc23)CC1 (racemic) [Example 93, 4-[8-[4-(dimethylamino)piperidin-1-yl]-5-(2-hydroxy-2,3-dihydro-1H-inden-5-yl)imidazo[1,2-a]pyrazin-6-yl]benzonitrile] | ≥ 7.30 |
| CN(C)C1CCN(c2nc(-c3ccc(C#N)cc3)c(-c3ccc4c(c3)C(O)CC4)n3ccnc23)CC1 (racemic) [Example 95, 4-[8-[4-(dimethylamino)piperidin-1-yl]-5-(3-hydroxy-2,3-dihydro-1H-inden-5-yl)imidazo[1,2-a]pyrazin-6-yl]benzonitrile] | ≥ 7.30 |
| Cc1ccc(-c2c(-c3ccc(C#N)cc3)nc(OC[C@@H]3CCNC3)c3nccn23)cc1 [Example 1, 4-{5-(4-methylphenyl)-8-[(3R)-pyrrolidin-3-ylmethoxy]imidazo[1,2-a]pyrazin-6-yl}benzonitrile] | ≥ 7.30 |
| Cc1ccc(-c2c(-c3ccc(C#N)cc3)nc(CCC3CCNC3)c3nccn23)cc1 (stereo not shown) [Example 2, 4-[5-(4-methylphenyl)-8-(2-pyrrolidin-3-ylethyl)imidazo[1,2-a]pyrazin-6-yl]benzonitrile] | ≥ 7.30 |
| Cc1ccc(-c2c(-c3ccc(C#N)cc3)nc(CN3CC[C@H](N(C)C)C3)c3nccn23)cc1 [Example 4, 4-[8-{[(3S)-3-(dimethylamino)pyrrolidin-1-yl]methyl}-5-(4-methylphenyl)imidazo[1,2-a]pyrazin-6-yl]benzonitrile] | ≥ 7.30 |
| Cc1ccc(-c2c(-c3ccc(C#N)cc3)nc(CN3CC[C@@H](N(C)C)C3)c3nccn23)cc1 [Example 5, 4-[8-{[(3R)-3-(dimethylamino)pyrrolidin-1-yl]methyl}-5-(4-methylphenyl)imidazo[1,2-a]pyrazin-6-yl]benzonitrile] | ≥ 7.30 |
| Cc1ccc(-c2c(-c3ccc(C#N)cc3)nc(OC3CCN(C)C3)c3nccn23)cc1 (stereo not shown) [Example 7, 4-{5-(4-methylphenyl)-8-[(1-methylpyrrolidin-3-yl)oxy]imidazo[1,2-a]pyrazin-6-yl}benzonitrile] | ≥ 7.30 |
| Cc1ccc(-c2c(-c3ccc(C#N)cc3)nc(OC[C@@H]3CCCNC3)c3nccn23)cc1 [Example 9, 4-{5-(4-methylphenyl)-8-[(3R)-piperidin-3-ylmethoxy]imidazo[1,2-a]pyrazin-6-yl}benzonitrile] | ≥ 7.30 |
| Cc1ccc(-c2c(-c3ccc(C#N)cc3)nc(OC[C@H]3CCCNC3)c3nccn23)cc1 [Example 10, 4-{5-(4-methylphenyl)-8-[(3S)-piperidin-3-ylmethoxy]imidazol[1,2-a]pyrazin-6-yl}benzonitrile] | ≥ 7.30 |
| Cc1ccc(-c2c(-c3ccc(C#N)cc3)nc(OC[C@@H]3CCN(C)C3)c3nccn23)cc1 [Example 11, 4-(5-(4-methylphenyl)-8-{[(3R)-1-methylpyrrolidin-3-yl]methoxy}imidazo[1,2-a]pyrazin-6-yl)benzonitrile] | ≥ 7.30 |
| Cc1ccc(-c2c(-c3ccc(C#N)cc3)nc(OC[C@@H]3CCCN(C)C3)c3nccn23)cc1 [Example 12, 4-(5-(4-methylphenyl)-8-{[(3R)-1-methylpiperidin-3-yl]methoxy}imidazo[1,2-a]pyrazin-6-yl)benzonitrile] | ≥ 7.30 |
| Cc1ccc(-c2c(-c3ccc(C#N)cc3)nc(SC[C@@H]3CCNC3)c3nccn23)cc1 [Example 13, 4-(5-(4-methylphenyl)-8-{[(3R)-pyrrolidin-3-ylmethyl]thio}imidazo[1,2-a]pyrazin-6-yl)benzonitrile] | ≥ 7.30 |
| Cc1ccc(-c2c(-c3ccc(C#N)cc3)nc(N3CCC(N(C)C)CC3)c3nccn23)cc1 [Example 14, 4-[8-[4-(dimethylamino)piperidin-1-yl]-5-(4-methylphenyl)imidazo[1,2-a]pyrazin-6-yl]benzonitrile] | ≥ 7.30 |
| Cc1ccc(-c2c(-c3ccc(C#N)cc3)nc(N3CCCN(C)CC3)c3nccn23)cc1 [Example 18, 4-[8-(4-methyl-1,4-diazepan-1-yl)-5-(4-methylphenyl)imidazo[1,2-a]pyrazin-6-yl]benzonitrile] | ≥ 7.30 |
| Cc1ccc(-c2c(-c3ccc(C#N)cc3)nc(N3CCC4(CCNC4)C3)c3nccn23)cc1 (stereo not shown) [Example 19, 4-[8-(2,7-diazaspiro[4.4]non-2-yl)-5-(4-methylphenyl)imidazo[1,2-a]pyrazin-6-yl]benzonitrile] | ≥ 7.30 |
| Cc1ccc(-c2c(-c3ccc(C#N)cc3)nc(N3CCC4(CC3)CNC4)c3nccn23)cc1 [Example 20, 4-[8-(2,7-diazaspiro[3.5]non-7-yl)-5-(4-methylphenyl)imidazo[1,2-a]pyrazin-6-yl]benzonitrile] | ≥ 7.30 |

| SMILES | pIC50 |
| --- | --- |
| N#Cc1ccc(-c2nc(OC[C@@H]3CCNC3)c3nccn3c2-c2ccc(N3CCCCC3)cc2)cc1 [Example 29, 4-{5-(4-piperidin-1-ylphenyl)-8-[(3R)-pyrrolidin-3-ylmethoxy]imidazo[1,2-a]pyrazin-6-yl}benzonitrile] | ≥ 7.30 |
| COc1ccc(-c2c(-c3ccc(C#N)cc3)nc(OC[C@@H]3CCNC3)c3nccn23)cc1 [Example 30, 4-{5-(4-methoxyphenyl)-8-[(3R)-pyrrolidin-3-ylmethoxy]imidazol[1,2-a]pyrazin-6-yl}benzonitrile] | ≥ 7.30 |
| Cc1ccc(-c2c(-c3ccc(C#N)cc3)nc(OC[C@@H]3CCNC3)c3nc(C)cn23)cc1 [Example 33, 4-{2-methyl-5-(4-methylphenyl)-8-[(3R)-pyrrolidin-3-ylmethoxy]imidazo[1,2-a]pyrazin-6-yl}benzonitrile] | ≥ 7.30 |
| Cc1ccc(-c2c(-c3ccc(C#N)cc3)nc(OC[C@@H]3CCNC3)c3nc(CC#N)cn23)cc1 [Example 36, 4-{2-(cyanomethyl)-5-(4-methylphenyl)-8-[(3R)-pyrrolidin-3-ylmethoxy]imidazol[1,2-a]pyrazin-6-yl}benzonitrile] | ≥ 7.30 |
| CNC(=O)c1cn2c(-c3ccc(C)cc3)c(-c3ccc(C#N)cc3)nc(OC[C@@H]3CCNC3)c2n1 [Example 37, 6-(4-cyanophenyl)-N-methyl-5-(4-methylphenyl)-8-[(3R)-pyrrolidin-3-ylmethoxy]imidazol-[1,2-a]pyrazine-2-carboxamide] | ≥ 7.30 |
| Cc1ccc(-c2c(-c3ccc(C#N)cc3)nc(OC[C@@H]3CCNC3)c3nc(C(=O)N(C)C)cn23)cc1 [Example 38, 6-(4-cyanophenyl)-N,N-dimethyl-5-(4-methylphenyl)-8-[(3R)-pyrrolidin-3-ylmethoxy]imidazo[1,2-a]pyrazine-2-carboxamide] | ≥ 7.30 |
| Cc1ccc(-c2c(-c3ccc(C#N)cc3)nc(OC[C@@H]3CCNC3)c3nc(C(=O)NC4CC4)cn23)cc1 [Example 39, 6-(4-cyanophenyl)-N-cyclopropyl-5-(4-methylphenyl)-8-[(3R)-pyrrolidin-3-ylmethoxy]imidazol[1,2-a]pyrazine-2-carboxamide] | ≥ 7.30 |
| Cc1ccc(-c2c(-c3ccc(C#N)cc3)nc(OC[C@@H]3CCNC3)c3nc(C(=O)NC4CN(C)C4)cn23)cc1 [Example 40, 6-(4-cyanophenyl)-N-(1-methylazetidin-3-yl)-5-(4-methylphenyl)-8-[(3R)-pyrrolidin-3-ylmethoxy]imidazol[1,2-a]pyrazine-2-carboxamide] | ≥ 7.30 |
| Cc1ccc(-c2c(-c3ccc(C#N)cc3)nc(OC[C@@H]3CCNC3)c3nc(CO)cn23)cc1 [Example 41, 4-{2-(hydroxymethyl)-5-(4-methylphenyl)-8-[(3R)-pyrrolidin-3-ylmethoxy]imidazol[1,2-a]pyrazin-6-yl}benzonitrile] | ≥ 7.30 |
| Cc1ccc(-c2c(-c3ccc(C#N)cc3)nc(OC[C@@H]3CCNC3)c3nc(CN(C)C)cn23)cc1 [Example 42, 4-{2-[(dimethylamino)methyl]-5-(4-methylphenyl)-8-[(3R)-pyrrolidin-3-ylmethoxy]imidazol[1,2-a]pyrazin-6-yl}benzonitrile] | ≥ 7.30 |
| Cc1ccc(-c2c(-c3ccc(C#N)cc3)nc(OC[C@@H]3CCNC3)c3nc(CN4CCC4)cn23)cc1 [Example 43, 4-{2-(azetidin-1-ylmethyl)-5-(4-methylphenyl)-8-[(3R)-pyrrolidin-3-ylmethoxy]imidazol[1,2-a]pyrazin-6-yl}benzonitrile] | ≥ 7.30 |
| Cc1ccc(-c2c(-c3ccc(C#N)cc3)nc(OC[C@@H]3CCNC3)c3nc(CNCC4CC4)cn23)cc1 [Example 44, 4-{2-{[(cyclopropylmethyl)amino]methyl}-5-(4-methylphenyl)-8-[(3R)-pyrrolidin-3-ylmethoxy]imidazo[1,2-a]pyrazin-6-yl}benzonitrile] | ≥ 7.30 |
| Cc1ccc(-c2c(-c3ccc(C#N)cc3)nc(OC[C@@H]3CCNC3)c3nc(CNc4ccon4)cn23)cc1 [Example 45, 4-{2-[(isoxazol-3-ylamino)methyl]-5-(4-methylphenyl)-8-[(3R)-pyrrolidin-3-ylmethoxy]imidazo[1,2-a]pyrazin-6-yl}benzonitrile] | ≥ 7.30 |
| Cc1ccc(-c2c(-c3ccc(C#N)cc3)nc(OC[C@@H]3CCN(C)C3)c3nc(CN(C)C)cn23)cc1 [Example 46, 4-(2-[(dimethylamino)methyl]-5-(4-methylphenyl)-8-{[(3R)-1-methylpyrrolidin-3-yl]methoxy}imidazo[1,2-a]pyrazin-6-yl)benzonitrile] | ≥ 7.30 |
| Cc1ccc(-c2c(-c3ccc(C#N)cc3)nc(OC[C@@H]3CCNC3)c3nc(CCN(C)C)cn23)cc1 [Example 47, 4-{2-[2-(dimethylamino)ethyl]-5-(4-methylphenyl)-8-[(3R)-pyrrolidin-3-ylmethoxy]imidazo[1,2-a]pyrazin-6-yl}benzonitrile] | ≥ 7.30 |
